Numbering of substitutions follows the chain as printed.
Key:
Details in all cases: at 10 µM
[1] = tested on: Receptor-type tyrosine-protein kinase FLT3 (Homo sapiens), P36888 [UNDEFINED MUTATION]; assay: (§1) Selectivity interaction (KinomeScan (DiscoverX)) EUB0000618a FLT3
[2] = tested on: T1, Receptor-type tyrosine-protein kinase FLT3 (Homo sapiens), P36888 [R834Q]; assay: as §1
T1 sequence (whole entry): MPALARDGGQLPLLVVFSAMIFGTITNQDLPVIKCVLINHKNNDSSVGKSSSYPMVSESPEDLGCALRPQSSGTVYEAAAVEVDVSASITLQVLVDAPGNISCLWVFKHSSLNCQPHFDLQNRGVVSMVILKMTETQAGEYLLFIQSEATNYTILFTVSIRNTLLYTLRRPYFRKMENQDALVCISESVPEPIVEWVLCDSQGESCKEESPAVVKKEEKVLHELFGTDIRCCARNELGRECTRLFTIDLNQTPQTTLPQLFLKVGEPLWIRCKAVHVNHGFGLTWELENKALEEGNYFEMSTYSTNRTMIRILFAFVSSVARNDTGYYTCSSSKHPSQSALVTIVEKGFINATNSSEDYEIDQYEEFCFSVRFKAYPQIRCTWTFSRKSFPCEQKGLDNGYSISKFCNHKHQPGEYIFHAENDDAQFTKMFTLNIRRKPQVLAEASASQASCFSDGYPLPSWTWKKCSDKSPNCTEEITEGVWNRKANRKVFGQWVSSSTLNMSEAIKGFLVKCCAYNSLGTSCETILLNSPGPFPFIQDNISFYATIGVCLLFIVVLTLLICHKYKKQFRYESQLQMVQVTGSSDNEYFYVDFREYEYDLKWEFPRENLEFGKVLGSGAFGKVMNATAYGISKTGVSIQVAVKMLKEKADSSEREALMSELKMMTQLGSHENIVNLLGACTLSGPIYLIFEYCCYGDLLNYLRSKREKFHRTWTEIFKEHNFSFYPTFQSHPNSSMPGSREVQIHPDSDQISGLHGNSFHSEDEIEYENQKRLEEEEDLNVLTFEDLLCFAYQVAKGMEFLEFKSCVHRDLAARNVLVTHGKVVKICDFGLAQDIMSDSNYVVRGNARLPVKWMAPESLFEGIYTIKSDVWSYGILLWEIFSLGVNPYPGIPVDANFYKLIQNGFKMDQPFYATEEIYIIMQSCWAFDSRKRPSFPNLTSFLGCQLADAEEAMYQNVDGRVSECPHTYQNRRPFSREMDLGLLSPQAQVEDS

[3] = tested on: T2, Receptor-type tyrosine-protein kinase FLT3 (Homo sapiens), P36888 [K663Q]; assay: as §1
T2 sequence (whole entry): T1 sequence (whole entry) with K663Q, Q834R

[4] = molecular target: Receptor-type tyrosine-protein kinase FLT3 (Homo sapiens) (UniProt P36888); assay: as §1
[5] = tested on: T3, Receptor-type tyrosine-protein kinase FLT3 (Homo sapiens), P36888 [D835Y]; assay: as §1
T3 sequence (whole entry): T1 sequence (whole entry) with Q834R, D835Y

For `O[C@H]1CC[C@H](Nc2ncc3nc(Nc4c(F)cc(F)cc4F)n([C@H]4CCOC4)c3n2)CC1`, the % of control [1] was 90%, the % of control [2] was 91% and the % of control [3] was 100%. For the same molecule, the % of control [4] was 97% and the % of control [5] was 100%.
